# Laboratory results as given in patent publication US20090226398A1, “ANTI-VIRAL COMPOUNDS, COMPOSITIONS, AND METHODS OF USE” (Genelabs Technologies, Inc., priority 2008, published 2009).
# System: HCV replication
# Test: Replicon Assay (Huh-lucubineo-ET cells, luciferase readout)
# Assay type: cell-based
# Settings: Hepatitis C virus; ET (Huh-lucubineo-ET) HCV replicon cell line; luciferase activity 48-72 hours after compound addition; 6 dilutions
# Description: A cell line, ET (Huh-lucubineo-ET) was used for screening of compounds of the present invention for inhibition of HCV replication. The ET cell line was stably transfected with RNA transcripts harboring a I389luc-ubi-neo/NS3-3′/ET; replicon with firefly luciferase-ubiquitin-neomycin phosphotransferase fusion protein and EMCV-IRES driven NS3-5B polyprotein containing the cell culture adaptive mutations (E1202G; T1280I; K1846T) (Krieger at al, 2001 and unpublished). The ET cells were grown in DMEM, supplemented with 10% fetal calf serum, 2 mM Glutamine, Penicillin (100 IU/mL)/Streptomycin (100 μg/mL), 1× nonessential amino acids, and 250 μg/mL G418 (“Geneticin”). They were all available through Life Technologies (Bethesda, Md.). The cells were plated at 0.5−1.0×10^4 cells/well in the 96 well plates and incubated for 24 hrs before adding the test compounds. The compounds were then added to the cells to achieve a final concentration of 5 or 50 μM. Luciferase activity was measured 48-72 hours later by adding a lysis buffer and the substrate (Catalog number Glo-lysis buffer E2661 and Bright-Glo luciferase system E2620 Promega, Madison, Wis.). Cells should not be too confluent during the assay. Percent inhibition of replication was plotted relative to no compound control. For EC50 (effective concentration at which 50% of the maximum inhibition is observed) determinations, 6 dilutions of each compound were used. Compounds were typically diluted 3 fold to span a concentration range of 250 fold. EC50 and similarly TC50 values were calculated by fitting % inhibition at each concentration to the following equation:
# % inhibition=100%/[(EC50/[I])^b+1]
# where b is Hill's coefficient.
row,Compound,EC50 [nM]
1,"Cn1ccc2cc(-c3ccc(Cn4cc5nc(-c6cccc(F)c6F)nc-5cn4)nn3)ccc21 [Compound 216, 2-(2,3-Difluoro-phenyl)-5-[6-(1-methyl-1H-indol-5-yl)-pyridazin-3-ylmethyl]-5H-imidazo[4,5-d]pyridazine]",≥ 50000
2,"CCOC(=O)CCc1ccc(-c2ccc(Cn3cc4nc(-c5cccc(F)c5F)nc-4cn3)nn2)cc1 [Compound 217, 3-(4-{6-[2-(2,3-Difluoro-phenyl)-imidazo[4,5-d]pyridazin-5-ylmethyl]-pyridazin-3-yl}-phenyl)-propionic acid ethyl ester]",52000
3,"COc1cccc(-c2ccc(Cn3cc4nc(-c5cccc(F)c5F)nc-4cn3)nn2)c1 [Compound 218, 2-(2,3-Difluoro-phenyl)-5-[6-(3-methoxy-phenyl)-pyridazin-3-ylmethyl]-5H-imidazo[4,5-d]pyridazine]",≥ 50000
4,"Fc1cccc(-c2nc3cnn(Cc4ccc(-c5ccc6c(c5)OCO6)nn4)cc-3n2)c1F [Compound 219, 5-(6-Benzo[1,3]dioxol-5-yl-pyridazin-3-ylmethyl)-2-(2,3-difluoro-phenyl)-5H-imidazo[4,5-d]pyridazine]",≥ 50000
5,"CCCc1ccc(-c2ccc(Cn3cc4nc(-c5cccc(F)c5F)nc-4cn3)nn2)cc1 [Compound 220, 2-(2,3-Difluoro-phenyl)-5-[6-(4-propyl-phenyl)-pyridazin-3-ylmethyl]-5H-imidazo[4,5-d]pyridazine]",520
6,"Cc1cccc(-c2ccc(Cn3cc4nc(-c5cccc(F)c5F)nc-4cn3)nn2)c1 [Compound 221, 2-(2,3-Difluoro-phenyl)-5-(6-m-tolyl-pyridazin-3-ylmethyl)-5H-imidazo[4,5-d]pyridazine]",≥ 50000
7,"Fc1cccc(-c2ccc(Cn3cc4nc(-c5cccc(F)c5F)nc-4cn3)nn2)c1 [Compound 222, 2-(2,3-Difluoro-phenyl)-5-[6-(3-fluoro-phenyl)-pyridazin-3-ylmethyl]-5H-imidazo[4,5-d]pyridazine]",≥ 50000
8,"CCCCOc1ccc(-c2ccc(Cn3cc4nc(-c5cccc(F)c5F)nc-4cn3)nn2)cc1 [Compound 223, 5-[6-(4-Butoxy-phenyl)-pyridazin-3-ylmethyl]-2-(2,3-difluoro-phenyl)-5H-imidazo[4,5-d]pyridazine]",49000
9,"COc1ccc(-c2ccc(Cn3cc4nc(-c5cccc(F)c5F)nc-4cn3)c(C)n2)c(C(F)(F)F)c1 [Compound 224, 2-(2,3-Difluoro-phenyl)-5-[6-(4-methoxy-2-trifluoromethyl-phenyl)-2-methyl-pyridin-3-ylmethyl]-5H-imidazo[4,5-d]pyridazine]",281
10,"Fc1cccc(-c2nc3cnn(Cc4ccc(-c5ccc(C(F)(F)F)cc5)cc4)cc-3n2)c1F [Compound 225, 2-(2,3-Difluoro-phenyl)-5-(4′-trifluoromethyl-biphenyl-4-ylmethyl)-5H-imidazo[4,5-d]pyridazine]",13700
11,"CCCOc1ccc(-c2ccc(Cn3cc4nc(-c5cccc(F)c5F)nc-4cn3)nn2)c(C(F)(F)F)c1 [Compound 226, 2-(2,3-Difluoro-phenyl)-5-[6-(4-propoxy-2-trifluoromethyl-phenyl)-pyridazin-3-ylmethyl]-5H-imidazo[4,5-d]pyridazine]",4
12,"Cc1ccc(-c2ccc(Cn3cc4nc(-c5cccc(F)c5F)nc-4cn3)nn2)c(Cl)c1 [Compound 227, 5-[6-(2-Chloro-4-methyl-phenyl)-pyridazin-3-ylmethyl]-2-(2,3-difluoro-phenyl)-5H-imidazo[4,5-d]pyridazine]",97
13,"COc1ccc(-c2ccc(Cn3cc4nc(-c5cccc(F)c5F)nc-4cn3)nn2)c(Cl)c1 [Compound 228, 5-[6-(2-Chloro-4-methoxy-phenyl)-pyridazin-3-ylmethyl]-2-(2,3-difluoro-phenyl)-5H-imidazo[4,5-d]pyridazine]",112
14,"Fc1cccc(-c2nc3cnn(Cc4ccc(-c5ccc(OC(F)(F)F)cc5)cc4)cc-3n2)c1F [Compound 229, 2-(2,3-Difluoro-phenyl)-5-(4′-trifluoromethoxy-biphenyl-4-ylmethyl)-5H-imidazo[4,5-d]pyridazine]",8380
15,"Fc1cc(C(F)(F)F)ccc1-c1ccc(Cn2cc3nc(-c4cccc(F)c4F)nc-3cn2)cc1 [Compound 230, 2-(2,3-Difluoro-phenyl)-5-(2′-fluoro-4′-trifluoromethyl-biphenyl-4-ylmethyl)-5H-imidazo[4,5-d]pyridazine]",3140
16,"CC(F)(F)COc1ccc(-c2ccc(Cn3cc4nc(-c5cccc(F)c5F)nc-4cn3)nn2)c(C(F)(F)F)c1 [Compound 231, 2-(2,3-Difluoro-phenyl)-5-{6-[4-(2,2-difluoro-propoxy)-2-trifluoromethyl-phenyl]-pyridazin-3-ylmethyl}-5H-imidazo[4,5-d]pyridazine]",164
17,"CCCOc1ccc(-c2ccc(Cn3cc4nc(-c5cccc(F)c5F)nc-4cn3)c(N)n2)c(C(F)(F)F)c1 [Compound 232, 3-[2-(2,3-Difluoro-phenyl)-imidazo[4,5-d]pyridazin-5-ylmethyl]-6-(4-propoxy-2-trifluoromethyl-phenyl)-pyridin-2-ylamine]",18
18,"CN(C)Cc1ccc(-c2ccc(Cn3cc4nc(-c5cccc(F)c5F)nc-4cn3)nn2)cc1 [Compound 233, (4-{6-[2-(2,3-Difluoro-phenyl)-imidazo[4,5-d]pyridazin-5-ylmethyl]-pyridazin-3-yl}-benzyl)-dimethyl-amine]",≥ 50000
19,"CCCOc1ccc(-c2ccc(Cn3cc4nc(-c5cccc(F)c5F)nc-4cn3)cn2)c(C)c1 [Compound 234, 2-(2,3-Difluoro-phenyl)-5-[6-(2-methyl-4-propoxy-phenyl)-pyridin-3-ylmethyl]-5H-imidazo[4,5-d]pyridazine]",1210
20,"COc1ccc(-c2ccc(Cn3cc4nc(-c5cccc(F)c5F)nc-4cn3)cn2)c(C(F)(F)F)c1 [Compound 235, 2-(2,3-Difluoro-phenyl)-5-[6-(4-methoxy-2-trifluoromethyl-phenyl)-pyridin-3-ylmethyl]-5H-imidazo[4,5-d]pyridazine]",10
21,"Fc1cccc(-c2nc3cnn(Cc4ccc(-c5ccc(Cl)cc5C(F)(F)F)nc4)cc-3n2)c1F [Compound 236, 5-[6-(4-Chloro-2-trifluoromethyl-phenyl)-pyridin-3-ylmethyl]-2-(2,3-difluoro-phenyl)-5H-imidazo[4,5-d]pyridazine]",15
22,"Fc1cccc(-c2nc3cnn(Cc4ccc(-c5ccc(C(F)(F)F)cc5Cl)nc4)cc-3n2)c1F [Compound 237, 5-[6-(2-Chloro-4-trifluoromethyl-phenyl)-pyridin-3-ylmethyl]-2-(2,3-difluoro-phenyl)-5H-imidazo[4,5-d]pyridazine]",119
23,"COc1ccc(-c2ccc(Cn3cc4nc(-c5cccc(F)c5F)nc-4cn3)nn2)c(C(F)(F)F)c1 [Compound 238, 2-(2,3-Difluoro-phenyl)-5-[6-(4-methoxy-2-trifluoromethyl-phenyl)-pyridazin-3-ylmethyl]-5H-imidazo[4,5-d]pyridazine]",6
24,"Cc1ccc(-c2ccc(Cn3cc4nc(-c5cccc(F)c5F)nc-4cn3)nc2)c(C(F)(F)F)c1 [Compound 239, 2-(2,3-Difluoro-phenyl)-5-[5-(4-methyl-2-trifluoromethyl-phenyl)-pyridin-2-ylmethyl]-5H-imidazo[4,5-d]pyridazine]",63
25,"Cc1ccc(-c2ccc(Cn3cc4nc(-c5cccc(F)c5F)nc-4cn3)c(N)n2)c(C(F)(F)F)c1 [Compound 240, 3-[2-(2,3-Difluoro-phenyl)-imidazo[4,5-d]pyridazin-5-ylmethyl]-6-(4-methyl-2-trifluoromethyl-phenyl)-pyridin-2-ylamine]",44
26,"COc1ccc(-c2ccc(Cn3cc4nc(-c5cccc(F)c5F)nc-4cn3)cc2)c(C(F)(F)F)c1 [Compound 241, 2-(2,3-Difluoro-phenyl)-5-(4′-methoxy-2′-trifluoromethyl-biphenyl-4-ylmethyl)-5H-imidazo[4,5-d]pyridazine]",21
27,"COc1ccc(-c2ccc(Cn3cc4nc(-c5cccc(F)c5F)nc-4cn3)c(N)n2)c(C(F)(F)F)c1 [Compound 242, 3-[2-(2,3-Difluoro-phenyl)-imidazo[4,5-d]pyridazin-5-ylmethyl]-6-(4-methoxy-2-trifluoromethyl-phenyl)-pyridin-2-ylamine]",44
28,"COc1ccc(-c2ccc(Cn3cc4nc(-c5cccc(F)c5F)nc-4cn3)nc2)c(C(F)(F)F)c1 [Compound 243, 2-(2,3-Difluoro-phenyl)-5-[5-(4-methoxy-2-trifluoromethyl-phenyl)-pyridin-2-ylmethyl]-5H-imidazo[4,5-d]pyridazine]",17
29,"Fc1cccc(-c2nc3cnn(Cc4ccc(-c5ccc(C(F)(F)F)cc5C(F)(F)F)cc4)cc-3n2)c1F [Compound 244, 5-(2′,4′-Bis-trifluoromethyl-biphenyl-4-ylmethyl)-2-(2,3-difluoro-phenyl)-5H-imidazo[4,5-d]pyridazine]",9
30,"CCCOc1ccc(-c2ccc(Cn3cc4nc(-c5cccc(F)c5F)nc-4cn3)cn2)cc1 [Compound 245, 2-(2,3-Difluoro-phenyl)-5-[6-(4-propoxy-phenyl)-pyridin-3-ylmethyl]-5H-imidazo[4,5-d]pyridazine]",8350
